Article PMC6457190, “Tridecaptin-inspired antimicrobial peptides with activity against multidrug-resistant Gram-negative bacteria” (MedChemComm, 2019)
Where a SMILES comes first, the peptide text is derived from it. [ ]: non-standard residue; d: D form. The star is where a group is joined. d(aIle) = CC[C@H](C)[C@@H](N)C(=O)O; dOrn = NCCC[C@@H](N)C(=O)O; dDab = NCC[C@@H](N)C(=O)O; Octanoyl = CCCCCCCC(=O)*; Orn = NCCC[C@H](N)C(=O)O

Legend:
K. pneumoniae IMP 216 = format: cell-based, Klebsiella pneumoniae; conditions: IMP 216, 18 h
Description: (§1) IV. Antimicrobial testing
(§2) All minimum inhibitory concentrations (MICs) were determined according to Clinical and Standards Laboratory Institute (CLSI) guidelines. Briefly, peptides were dissolved in Muller-Hinton Broth (MHB) and serial dilutions made across a 96 well plate. Each well was inoculated with a suspension of the required bacterial strain to reach a final inoculum of 5 x 10^5 colony forming units per mL. The MIC was taken as the lowest concentration with no visible growth after 18 hours.

K. pneumoniae = format: cell-based, Klebsiella pneumoniae; conditions: 18 h
Description: as §1, §2

K. pneumoniae IMP 177 = format: cell-based, Klebsiella pneumoniae; conditions: IMP 177, 18 h
Description: as §1, §2

K. pneumoniae IMP 170 = format: cell-based, Klebsiella pneumoniae; conditions: IMP 170, 18 h
Description: as §1, §2

K. pneumoniae IMP 485 = format: cell-based, Klebsiella pneumoniae; conditions: IMP 485, 18 h
Description: as §1, §2

K. pneumoniae IMP 204 = format: cell-based, Klebsiella pneumoniae; conditions: IMP 204, 18 h
Description: as §1, §2

A. baumannii = format: cell-based, Acinetobacter baumannii; conditions: 18 h
Description: as §1, §2
(§3) V. Additional information on multidrug resistant strains
(§4) Organism Resistant Susceptible
Acinetobacter baumannii Cefotaxime Imipenem
Isolated from sewage contaminated Tetracycline Colistin water (Tripoli, Lebanon). Ofloxacin Tobramycin
(§5) Acinetobacter baumannii ACM 11 Ceftazimide
(§6) Acinetobacter baumannii ACM 29 Ceftazimide
(§7) Isolated from peritoneum of 3-year- Imipenem

A. baumannii ACM 11 = format: cell-based, Acinetobacter baumannii; conditions: ACM 11, 18 h
Description: as §1, §2, §3, §4, §5

P. pseudoalcaligenes = format: cell-based, Pseudomonas pseudoalcaligenes; conditions: for Peptide MIC: 18 h; for antimicrobial activity relative to Oct-TriA1: against P. pseudoalcaligenes
Description: as §1, §2

Equine erythrocytes = format: cell-based, horse; conditions: red cells of equine, 100 μg mL^–1
Description: Having assessed the antimicrobial activity of peptides 1–8 we next proceeded to assess their haemolytic activities (Table 2). Haemolytic activity was tested at 100 μg mL^–1, as the concentration required for haemolysis should be higher than antimicrobial MICs. Equine erythrocytes were exposed to peptides 1–8 and incubated for 30 min at 37 °C (Table 2). […] The low haemolytic activity observed for Oct-TriA2 (2,8-D-Lys, 7-Lys) (8) is consistent with its poor antimicrobial activity. […]
VI. Haemolytic activity assays
A 96-well plate was first prepared to contain phosphate-buffered saline (PBS) solutions (100 μL) of tridecaptin analogues 1 – 8 (200 μg/mL) (experiments run in triplicate). 0.1 % Triton X-100 (100 μL) was used as a positive control, while PBS (100 μL) was used as a blank. After the plate had been prepared, defibrinated horse blood (0.5 mL, VWR International) was diluted with phosphate-buffered saline (9.5 mL) and gently shaken. The resulting mixture was centrifuged (5600 rpm, 5 min) using a Thermo Scientific Heraeus Labofuge 200 centrifuge and the supernatant carefully removed. This process was repeated three more times to remove any free hemoglobin. The resulting erythrocyte pellet was gently resuspended in 9.5 mL of PBS. Aliquots of the resulting mixture (100 μL) were added to the appropriate wells on the 96-well plate using a multichannel pipette and the plate incubated at 37 °C for 30 min. The samples were gently mixed by pipetting, and 20 μL of each was added to 200 μL of PBS. Once again, the samples were gently mixed. The diluted samples were then centrifuged (7000 rpm, 5 min) using a SciSpin MINI Microfuge. Supernatant (150 μL) from each sample was added to a new 96-well plate. The absorbance of each sample was individually measured at 415 nm using a Denovix DS-11 FX+ Spectrophotometer. Percent hemolysis of the peptides was calculated relative to Triton X- 100, while the PBS negative control was used as a blank.

E. cloacae = format: cell-based, Enterobacter cloacae; conditions: 18 h
Description: as §1, §2

A. baumannii ACM 29 = format: cell-based, Acinetobacter baumannii; conditions: ACM 29, 18 h
Description: as §1, §2
V. Additional information on multidrug resistant strains […]
Organism Resistant Susceptible […]
as §6, §7

[1] = system: panel of Gram-negative bacteria; test: MIC, summary over the panel of strains; format: cell-based; conditions: highest concentration tested 100 μg mL^–1, all strains of the panel
Text: Previous studies have shown that the tridecaptins have strong activity against clinically relevant Gram-negative strains.[8],[14] This includes A. baumannii and Enterobacteriaceae such as Klebsiella pneumoniae and Enterobacter spp., however P. aeruginosa is less susceptible. The World Health Organization (WHO) currently lists carbapenemase-producing strains of these Gram-negative bacteria as critical priority pathogens. We therefore decided to synthesize a library of novel tridecaptin analogues containing conservative substitutions at positions 2, 7, 8 and/or 12, and evaluate their activity against a panel of these strains (Table 1). This panel of Gram-negative bacteria contains environmental samples isolated from sewage contaminated water in Lebanon, as well as several strains isolated from patients at clinical settings. […]
MilliQ water and solvent B = 0.1 % TFA in ACN. […] High resolution mass spectrometry (HRMS) spectra of all peptides were recorded by Analytical Services and Environmental Projects (ASEP) at Queen’s University Belfast on a Waters LCT Premier ToF mass spectrometer using the electrospray ionisation (ESI) technique. […]
All minimum inhibitory concentrations (MICs) were determined according to Clinical and Standards Laboratory Institute (CLSI) guidelines. […]

Row | SMILES | Peptide MIC (K. pneumoniae IMP 216) | Peptide MIC (K. pneumoniae) | Peptide MIC (K. pneumoniae IMP 177) | Peptide MIC (K. pneumoniae IMP 170) | Peptide MIC (K. pneumoniae IMP 485) | Peptide MIC (K. pneumoniae IMP 204) | Peptide MIC (A. baumannii) | Peptide MIC (A. baumannii ACM 11) | Peptide MIC (P. pseudoalcaligenes) | antimicrobial activity relative to Oct-TriA1 (P. pseudoalcaligenes) | % haemolysis (Equine erythrocytes) | Peptide MIC (E. cloacae) | Peptide MIC (A. baumannii ACM 29) | antimicrobial activity at the highest concentrations tested [1]
1 | CCCCCCCC(=O)N[C@@H](C(=O)N[C@H](CCCCN)C(=O)NCC(=O)N[C@H](CO)C(=O)N[C@H](Cc1c[nH]c2ccccc12)C(=O)N[C@@H](CO)C(=O)N[C@@H](CCCCN)C(=O)N[C@H](CCN)C(=O)N[C@@H](Cc1ccccc1)C(=O)N[C@@H](CCC(=O)O)C(=O)N[C@H](C(=O)N[C@@H](C(=O)N[C@@H](C)C(=O)O)[C@@H](C)CC)C(C)C)C(C)C [Peptide 4, Oct-TriA1 (2-D-Lys, 7-Lys)] (Octanoyl-[dV][dK]G[dS][dW]SK[dDab]FEV[d(aIle)]A-OH) | 25 μg mL^–1 | 50 μg mL^–1 | 25 μg mL^–1 | 25 μg mL^–1 | 25 μg mL^–1 | 25 μg mL^–1 | 50 μg mL^–1 | 25 μg mL^–1 | 25 μg mL^–1 | enhanced antimicrobial activity | 71.4% | 25 μg mL^–1 | 50 μg mL^–1 | –
2 | CCCCCCCC(=O)N[C@@H](C(=O)N[C@H](CCCN)C(=O)NCC(=O)N[C@H](CO)C(=O)N[C@H](Cc1c[nH]c2ccccc12)C(=O)N[C@@H](CO)C(=O)N[C@@H](CCCN)C(=O)N[C@H](CCCN)C(=O)N[C@@H](Cc1ccccc1)C(=O)N[C@@H](CCC(=O)O)C(=O)N[C@H](C(=O)N[C@@H](C(=O)N[C@@H](C)C(=O)O)[C@@H](C)CC)C(C)C)C(C)C [Peptide 5, Oct-TriA1 (2,8-D-Orn, 7-Orn)] (Octanoyl-[dV][dOrn]G[dS][dW]S[Orn][dOrn]FEV[d(aIle)]A-OH) | 6.25 μg mL^–1 | 12.5 μg mL^–1 | 25 μg mL^–1 | 25 μg mL^–1 | 25 μg mL^–1 | 25 μg mL^–1 | 12.5 μg mL^–1 | 50 μg mL^–1 | 50 μg mL^–1 | – | 77.5% | 6.25 μg mL^–1 | 50 μg mL^–1 | –
3 | CCCCCCCC(=O)N[C@@H](C(=O)N[C@H](CCCN)C(=O)NCC(=O)N[C@H](CO)C(=O)N[C@H](Cc1c[nH]c2ccccc12)C(=O)N[C@@H](CO)C(=O)N[C@@H](CCCN)C(=O)N[C@H](CCN)C(=O)N[C@@H](Cc1ccccc1)C(=O)N[C@@H](CCC(=O)O)C(=O)N[C@H](C(=O)N[C@@H](C(=O)N[C@@H](C)C(=O)O)[C@@H](C)CC)C(C)C)C(C)C [Peptide 3, Oct-TriA1 (2-D-Orn, 7-Orn)] (Octanoyl-[dV][dOrn]G[dS][dW]S[Orn][dDab]FEV[d(aIle)]A-OH) | 25 μg mL^–1 | 100 μg mL^–1 | 25 μg mL^–1 | 25 μg mL^–1 | 25 μg mL^–1 | 25 μg mL^–1 | 100 μg mL^–1 | 50 μg mL^–1 | 12.5 μg mL^–1 | enhanced antimicrobial activity | 66.7% | 25 μg mL^–1 | 50 μg mL^–1 | –
4 | CCCCCCCC(=O)N[C@@H](C(=O)N[C@H](CCCCN)C(=O)NCC(=O)N[C@H](CO)C(=O)N[C@H](Cc1c[nH]c2ccccc12)C(=O)N[C@@H](CO)C(=O)N[C@@H](CCCCN)C(=O)N[C@H](CCCCN)C(=O)N[C@@H](Cc1ccccc1)C(=O)N[C@@H](CCC(=O)O)C(=O)N[C@H](C(=O)N[C@@H](C(=O)N[C@@H](C)C(=O)O)C(C)C)C(C)C)C(C)C [Peptide 8, Oct-TriA2 (2,8-D-Lys, 7-Lys)] (HELM PEPTIDE1{[CCCCCCCC(=O)[*:2]].[dV].[dK].G.[dS].[dW].S.K.[dK].F.E.V.[dV].A}$$$$V2.0) | >100 μg mL^–1 | >100 μg mL^–1 | >100 μg mL^–1 | >100 μg mL^–1 | >100 μg mL^–1 | >100 μg mL^–1 | >100 μg mL^–1 | >100 μg mL^–1 | >100 μg mL^–1 | – | 2.8% | >100 μg mL^–1 | >100 μg mL^–1 | no antimicrobial activity
5 | CCCCCCCC(=O)N[C@@H](C(=O)N[C@H](CCCCN)C(=O)NCC(=O)N[C@H](CO)C(=O)N[C@H](Cc1c[nH]c2ccccc12)C(=O)N[C@@H](CO)C(=O)N[C@@H](CCCCN)C(=O)N[C@H](CCCCN)C(=O)N[C@@H](Cc1ccccc1)C(=O)N[C@@H](CCC(=O)O)C(=O)N[C@H](C(=O)N[C@@H](C(=O)N[C@@H](C)C(=O)O)[C@@H](C)CC)C(C)C)C(C)C [Peptide 6, Oct-TriA1 (2,8-D-Lys, 7-Lys)] (HELM PEPTIDE1{[CCCCCCCC(=O)[*:2]].[dV].[dK].G.[dS].[dW].S.K.[dK].F.E.V.[CC[C@H](C)[C@@H](N[*:1])C(=O)[*:2]].A}$$$$V2.0) | 25 μg mL^–1 | 50 μg mL^–1 | 25 μg mL^–1 | 50 μg mL^–1 | 25 μg mL^–1 | 50 μg mL^–1 | 6.25 μg mL^–1 | 25 μg mL^–1 | 100 μg mL^–1 | – | 86.4% | 25 μg mL^–1 | 25 μg mL^–1 | –
